# Key:
# Escherichia coli [1] = test: Inhibition of Escherichia coli beta-glucuronidase at 100 uM using p-nitrophenyl-glycoside as substrate by spectrophotometric method
# [2] = target: T1, Beta-galactosidase (Bos taurus) (UniProt Q58D55); test: Inhibition of bovine liver beta-galactosidase at 100 uM using p-nitrophenyl-glycoside as substrate by spectrophotometric method
# T1 sequence (whole entry): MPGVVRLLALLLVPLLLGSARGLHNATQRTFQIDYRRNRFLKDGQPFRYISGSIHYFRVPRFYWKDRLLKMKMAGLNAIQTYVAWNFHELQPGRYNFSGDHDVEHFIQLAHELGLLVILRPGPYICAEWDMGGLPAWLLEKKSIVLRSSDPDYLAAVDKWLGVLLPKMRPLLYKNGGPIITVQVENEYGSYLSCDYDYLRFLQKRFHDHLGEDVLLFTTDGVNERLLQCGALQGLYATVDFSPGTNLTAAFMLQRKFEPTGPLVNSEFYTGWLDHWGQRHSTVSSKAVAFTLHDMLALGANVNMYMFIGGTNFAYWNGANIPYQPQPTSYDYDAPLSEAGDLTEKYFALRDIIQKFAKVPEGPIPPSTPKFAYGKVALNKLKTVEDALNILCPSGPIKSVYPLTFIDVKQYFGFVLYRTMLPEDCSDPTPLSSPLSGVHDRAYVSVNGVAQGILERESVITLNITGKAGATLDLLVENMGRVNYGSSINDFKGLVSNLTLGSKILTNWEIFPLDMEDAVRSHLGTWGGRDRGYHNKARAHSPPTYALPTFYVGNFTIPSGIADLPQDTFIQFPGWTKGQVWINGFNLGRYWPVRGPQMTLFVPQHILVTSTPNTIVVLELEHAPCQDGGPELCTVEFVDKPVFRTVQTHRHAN
# Rattus norvegicus [3] = species on record: Rattus norvegicus; test: Inhibition of rat intestinal maltase assessed as D-glucose level at 100 uM using maltose as substrate measured after 10 to 30 mins
# Aspergillus niger [4] = test: Inhibition of Aspergillus niger amyloglucosidase assessed as D-glucose level at 100 uM using maltose as substrate measured after 10 to 30 mins
# [5] = target: T2, Tissue alpha-L-fucosidase (Bos taurus) (UniProt Q2KIM0); test: Inhibition of bovine kidney alpha-L-fucosidase at 100 uM using p-nitrophenyl-glycoside as substrate by spectrophotometric method
# T2 sequence (whole entry): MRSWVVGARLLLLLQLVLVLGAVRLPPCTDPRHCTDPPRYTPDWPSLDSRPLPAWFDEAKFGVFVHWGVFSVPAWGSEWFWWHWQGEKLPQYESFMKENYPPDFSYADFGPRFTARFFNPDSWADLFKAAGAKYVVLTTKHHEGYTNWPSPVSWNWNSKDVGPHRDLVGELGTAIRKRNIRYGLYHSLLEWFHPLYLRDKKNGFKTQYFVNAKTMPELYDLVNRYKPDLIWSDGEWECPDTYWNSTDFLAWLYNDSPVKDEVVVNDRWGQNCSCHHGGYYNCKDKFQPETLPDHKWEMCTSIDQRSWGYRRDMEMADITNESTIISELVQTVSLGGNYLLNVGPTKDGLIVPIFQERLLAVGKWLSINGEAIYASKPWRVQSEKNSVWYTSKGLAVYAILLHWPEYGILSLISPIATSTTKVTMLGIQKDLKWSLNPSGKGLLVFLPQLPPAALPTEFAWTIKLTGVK
# Homo sapiens [6] = species on record: Homo sapiens; test: Inhibition of human lysosomal beta-glucosidase at 100 uM using 4-methylumbelliferyl-beta-D-glucopyranoside as substrate preincubated for 45 mins followed by substrate addition measured after 30 mins by fluorescence spectrophotometric method
# Bos taurus [7] = species on record: Bos taurus; test: Inhibition of bovine liver beta-glucosidase at 100 uM using p-nitrophenyl-glycoside as substrate by spectrophotometric method
# Prunus dulcis [8] = test: Inhibition of almond beta-glucosidase at 100 uM using p-nitrophenyl-glycoside as substrate by spectrophotometric method
# Oryza sativa = test: Inhibition of rice alpha-glucosidase at 100 uM using p-nitrophenyl-glycoside as substrate by spectrophotometric method
# [9] = Inhibition of Penicillium decumbens alpha-L-rhamnosidase using p-nitrophenyl-glycoside as substrate by spectrophotometric method
# [10] = target: T3, Uncharacterized protein (Sus scrofa) (UniProt I3LIR5); test: Inhibition of porcine kidney trehalase assessed as D-glucose level at 100 uM using maltose as substrate measured after 10 to 30 mins
# T3 sequence (whole entry): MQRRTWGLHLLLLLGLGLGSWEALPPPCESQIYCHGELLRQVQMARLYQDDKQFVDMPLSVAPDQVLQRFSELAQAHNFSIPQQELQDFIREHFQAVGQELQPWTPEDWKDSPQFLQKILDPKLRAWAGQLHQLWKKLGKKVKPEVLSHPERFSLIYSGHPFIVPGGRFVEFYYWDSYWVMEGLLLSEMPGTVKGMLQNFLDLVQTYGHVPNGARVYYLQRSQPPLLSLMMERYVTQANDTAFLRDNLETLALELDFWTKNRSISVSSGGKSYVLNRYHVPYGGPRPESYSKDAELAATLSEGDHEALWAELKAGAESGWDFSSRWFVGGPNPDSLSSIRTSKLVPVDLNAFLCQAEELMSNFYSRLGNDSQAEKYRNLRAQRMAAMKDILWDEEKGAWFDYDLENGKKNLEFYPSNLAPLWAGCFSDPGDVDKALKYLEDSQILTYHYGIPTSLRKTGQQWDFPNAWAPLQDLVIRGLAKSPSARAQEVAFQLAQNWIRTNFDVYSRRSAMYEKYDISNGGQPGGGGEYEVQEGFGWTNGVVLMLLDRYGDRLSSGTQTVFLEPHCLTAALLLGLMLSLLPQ
# [11] = Inhibition of bovine liver beta-glucosidase using p-nitrophenyl-glycoside as substrate by spectrophotometric method; parameters: species or system Bos taurus
# Penicillium decumbens = test: Inhibition of Penicillium decumbens alpha-L-rhamnosidase at 100 uM using p-nitrophenyl-glycoside as substrate by spectrophotometric method
# Beta-galactosidase = target: T4, Beta-galactosidase (Bos taurus, UniProt Q58D55); test: Inhibition of bovine liver beta-galactosidase using p-nitrophenyl-glycoside as substrate by spectrophotometric method
# T4 sequence (Q58D55 whole entry): T1 sequence (whole entry)
# [12] = Inhibition of human lysosomal beta-glucosidase using 4-methylumbelliferyl-beta-D-glucopyranoside as substrate preincubated for 45 mins followed by substrate addition measured after 30 mins by fluorescence spectrophotometric method
# [13] = target: T2, Tissue alpha-L-fucosidase (Bos taurus); test: Inhibition of bovine kidney alpha-L-fucosidase at 1000 uM using p-nitrophenyl-glycoside as substrate by spectrophotometric method
# Bos taurus [14] = species on record: Bos taurus; test: Inhibition of bovine liver beta-glucosidase at 1000 uM using p-nitrophenyl-glycoside as substrate by spectrophotometric method
# [15] = Inhibition of rice alpha-glucosidase using p-nitrophenyl-glycoside as substrate by spectrophotometric method; parameters: species or system Oryza sativa
# Aspergillus niger [16] = test: Inhibition of Aspergillus niger amyloglucosidase assessed as D-glucose level at 1000 uM using maltose as substrate measured after 10 to 30 mins
# Escherichia coli [17] = test: Inhibition of Escherichia coli beta-glucuronidase at 1000 uM using p-nitrophenyl-glycoside as substrate by spectrophotometric method
# Prunus dulcis [18] = test: Inhibition of almond beta-glucosidase at 1000 uM using p-nitrophenyl-glycoside as substrate by spectrophotometric method
# Homo sapiens [19] = species on record: Homo sapiens; test: Inhibition of human lysosomal beta-glucosidase at 1000 uM using 4-methylumbelliferyl-beta-D-glucopyranoside as substrate preincubated for 45 mins followed by substrate addition measured after 30 mins by fluorescence spectrophotometric method
# [20] = target: T3, Uncharacterized protein (Sus scrofa); test: Inhibition of porcine kidney trehalase assessed as D-glucose level at 1000 uM using maltose as substrate measured after 10 to 30 mins
# Rattus norvegicus [21] = species on record: Rattus norvegicus; test: Inhibition of rat intestinal maltase assessed as D-glucose level at 1000 uM using maltose as substrate measured after 10 to 30 mins
Compound,inhibition (Escherichia coli [1]) [%],inhibition [2] [%],inhibition (Rattus norvegicus [3]) [%],inhibition (Aspergillus niger [4]) [%],inhibition [5] [%],inhibition (Homo sapiens [6]) [%],inhibition (Bos taurus [7]) [%],inhibition (Prunus dulcis [8]) [%],inhibition (Oryza sativa) [%],IC50 [9] [µM],inhibition [10] [%],IC50 [11] [µM],inhibition (Penicillium decumbens) [%],IC50 (Beta-galactosidase) [µM],IC50 [12] [µM],further results
CCCCCCCCCCNC(=S)N1[C@@H](CO)[C@H](O)[C@@H](O)[C@@H]1CO,< 50,–,< 50,< 50,< 50,–,–,< 50,< 50,–,< 50,16,< 50,61,65,–
OC[C@H]1[C@H](O)[C@@H](O)[C@@H]2CS/C(=N/Cc3ccccc3)N12,< 50,< 50,< 50,< 50,< 50,< 50,< 50,< 50,< 50,2.2,< 50,–,–,–,–,–
OC[C@H]1[C@H](O)[C@@H](O)[C@@H]2CS/C(=N/CCCCCCCc3ccccc3)N12,< 50,< 50,< 50,< 50,< 50,< 50,< 50,< 50,< 50,1,< 50,–,–,–,–,–
CCCCCCCCCCNC(=S)N1[C@H](CO)[C@@H](O)[C@H](O)[C@H]1CO,< 50,–,< 50,< 50,< 50,–,< 50,< 50,< 50,–,< 50,–,< 50,100,0.74,–
CCCCCCCCCCCCNC(=S)N1[C@H](CO)[C@@H](O)[C@H](O)[C@H]1CO,< 50,–,< 50,< 50,< 50,–,–,< 50,< 50,–,< 50,23,< 50,24,0.16,–

# Further lines, with some results ahead:
inhibition (Escherichia coli [1]) [%],inhibition [2] [%],inhibition (Rattus norvegicus [3]) [%],inhibition (Aspergillus niger [4]) [%],inhibition [5] [%],inhibition (Homo sapiens [6]) [%],inhibition (Bos taurus [7]) [%],inhibition (Prunus dulcis [8]) [%],inhibition (Oryza sativa) [%],IC50 [9] [µM],inhibition [10] [%],IC50 [11] [µM],inhibition (Penicillium decumbens) [%],IC50 (Beta-galactosidase) [µM],IC50 [12] [µM],Compound,further results
< 50,< 50,< 50,< 50,< 50,< 50,< 50,< 50,< 50,6.8,< 50,–,–,–,–,OC[C@H]1[C@H](O)[C@@H](O)[C@@H]2CS/C(=N/CCCc3ccccc3)N12,–
< 50,< 50,< 50,< 50,< 50,< 50,< 50,< 50,< 50,1.8,< 50,–,–,–,–,OC[C@H]1[C@H](O)[C@@H](O)[C@@H]2CS/C(=N/CCCCCc3ccccc3)N12,–
–,–,–,–,–,–,–,–,–,37,–,–,–,719,–,CCCC/N=C1/SC[C@H]2[C@H](O)[C@@H](O)[C@H](CO)N12,inhibition [13]: < 50%; inhibition (Bos taurus [14]): < 50%; IC50 [15]: 339 µM; inhibition (Aspergillus niger [16]): < 50%; inhibition (Escherichia coli [17]): < 50%; inhibition (Prunus dulcis [18]): < 50%; inhibition (Homo sapiens [19]): < 50%; inhibition [20]: < 50%; inhibition (Rattus norvegicus [21]): < 50%
< 50,–,< 50,< 50,< 50,–,–,< 50,< 50,–,< 50,63,< 50,93,1,CCCCCCCCCC/N=C1/SC[C@@H]2[C@@H](O)[C@H](O)[C@@H](CO)N12,–
